Where two headings read alike, the source gives them in different places.
Tests used:
Arabidopsis thaliana = assay: Homologous recombination (GUS reporter, histochemical staining) in plants grown on supplemented medium; assay type: in vivo; conditions: for RR (recombination rate): 3-week-old plants; for effect on homologous recombination frequency: FIG. 3; for increase in homologous recombination vs control MS medium: about 3 weeks
Source text: Homologous recombination was detected in plants, in particular Arabidopsis thaliana and tobacco plants, that were transformed with scorable reporter markers, for example, beta-glucuronidase (uidA or GUS). Upon homologous recombination, the marker gene is restored. Homologous recombination events were identified using histochemical staining. […] A recombination substrate generally consists of two non-functional overlapping copies of a GUS gene. Damage to one of the regions of homology may be repaired using the second copy as a template. A simple count of the number of recombination events in a population of plants was used to conduct quantitative analyses of beta-glucuronidase (GUS) activity. The homologous recombination frequency (HRF) was determined by relating the number of blue spots counted which are indicative of […] and then relating that number to the total number of plants scored. The recombination rate (RR) was determined by relating the HRF to the total number of haploid genomes present in the plant.
The total DNA of the transgenic lines was isolated from whole plants at preferably the full rosette stage using a Nucleon™ PhytoPure™ plant DNA extraction kit from Amersham Life Science. DNA may also be isolated from plants at a different development stage. The yield of total DNA measured in one of micrograms per plant or micrograms per plant organ was compared with the known mean DNA content, 0.16 pg of an A. thaliana cell, to give an approximate number of genomes present in plants (Swoboda et al., Mol. Gen. Genet., 1993, 237(1-2): 33-40). The total DNA was isolated from one of all leaves, roots, and stems of 4 plants per each experimental group for each transgenic line. The average DNA content from these samples was used to estimate the number of genomes present.
Tissues were prepared from A. thaliana plants that were germinated and grown for a period of 3 weeks on a medium containing 0, 25, 75, and 100 mM of NaCl. The recombination rate (RR) was calculated by scoring the HRF in separate groups of 3-week-old plants and then relating these numbers to the total number of genomes present in the plants. Each of the calculated values represents the mean value for the RR. […] The “Fold Increase” values shown in Table 1 were calculated by relating the data from plants grown on 25, 75 and 100 mM of NaCL to the data from plants grown in the absence of NaCl.
Plants were germinated and grown on MS medium supplemented with one of 25 mM NaCl, 12.5 mM of Na2SO4, 12.5 mM of MgCl2, and 12.5 mM of MgSO4. Control plants were grown on standard MS medium. […] The data shown is the RR as an average of two independent experiments, each having 200 plants per experimental group.
The effects of KCl on plant transformation were measured using transgenic plants germinated from Arabidopsis line #11 obtained from Prof. Hohn, Friedrich Miescher Institute, Basel, Switzerland. Plants were germinated and grown on a solid or modified MS basal medium in presence of varying quantities of KCl. In order to establish KCl as the single source of potassium in all the modified media, KNO3, normally present in MS media was omitted. Additionally, potassium dihydrogenphosphate (KH2PO4) was replaced with ammonium dihydrogenphosphate (NH4▪H2PO4).

Nicotiana tabacum [1] = assay: Calli regeneration under hygromycin selection after Agrobacterium transformation of leaves; assay type: in vivo; conditions: for Calli regenerated and transplanted: died on soil / Calli regenerated and transplanted: total: 20 leaves transformed
Experimental: Seeds of tobacco cultivar “Big Havana” were surface-sterilized with a solution containing 1% bleach and 0.05% Tween-80, for about 3 minutes and then rinsed twice with sterile distilled water for about 5 minutes. Surface-sterilized seeds were plated in 100 mm Petri dishes on sterile Whatman® filter paper submersed in 4 ml of liquid MS medium containing varying amounts of KCl and the plants were transferred to a growth chamber for germination. Once germinated, the plants were removed from the growth chamber and grown for a period of one week under conditions of 16-hours light, 22° C. and 8-hours dark, 18° C. Three to five one-week-old plants were then removed from the 4-ml liquid medium and were transferred to single sterile glass 250-ml flasks containing 15 ml of sterile liquid MS media supplemented with varying amounts of KCl. Flasks were then installed on shakers at 50-75 rpm. Plants were continuously grown under conditions of 16-hours light, 22° C. and 8-hours dark, 18° C. The growth medium in each flask was replaced weekly with 25 ml of fresh medium. Following a 3-week period, plants were removed from the flasks and 2 to 3 pairs of fully developed fresh leaves about 2-4 cm long were harvested (cut from the plant) for transformation with Agrobacteria.
Experimental groups of tobacco plants were germinated and grown in a liquid medium culture supplemented with varying amounts of KCl. Control plants for the transformation experiments were grown in a standard MS-medium that was not supplemented with KCl.
Four weeks post-germination, the tobacco plants were removed from the liquid medium culture. The leaves from the plants were removed, and several parallel incisions were made along the leaves. The leaves were then vacuum infiltrated with an Agrobacterium suspension culture carrying the plasmid with LUC (gene coding for luciferase) and hygromycin (gene coding for the resistance to hygromycin) genes.
The leaves were vacuum-infiltrated twice for about 5 minutes with the Agrobacterium suspension culture using standard procedures known in the art. Following vacuum-infiltration, the tobacco leaves were dried for about 5 to 10 minutes on sterile Whatman® filter paper to remove substantially all excess Agrobacterium cells. The leaves were then placed on plates containing MS medium, and each of the plates were placed for in a room for a period of 3 day at a temperature of 22° C. and exposed to a daily regime of 16-hours of light and 8-hours of dark.
Leaves from each of the experimental groups grown on the different media compositions having varying amounts of KCL and the controls were washed with sterile water to remove the Agrobacterium suspension. To remove traces of growth medium, leaves were blotted on sterile filter paper and then submersed in a Petri dish laid out with Whatman® filter paper containing re-suspended Agrobacterium cells. Each submersed leaf surface was incised using a sharp surgical blade in parallel along the side veins. The distance between the two parallel incisions was about 5-7 mm. The primary leaf vein and leaf margins were left intact. Once cutting was complete, leaves remained submersed for a period of about 10 minutes. Leaves were then removed from the Petri dish and were blotted dry and placed upside-down on plates of MS medium, and were incubated in a dark room at 22° C. for a period of 3 days. […]
After a period of about 3 to 4 weeks, the numbers of regenerated calli were determined. […]

Nicotiana tabacum [2] = assay: Stable T-DNA integration (LUC expression test of regenerated plantlets); assay type: in vivo; conditions: for Calli regenerated and transplanted, LUC expression test: LUC negative / Calli regenerated and transplanted, LUC expression test: LUC positive: 20 leaves transformed
Source text: The number of transgenic plants, having incorporated a marker gene, regenerated from tobacco calli in various transformation experiments were counted. All the regenerated plants were screened using a luciferase camera. Spraying the transgenic plants with luciferine, the substrate for luciferase enzyme, allowed the identification of transgenic plants expressing the luciferase.
The newly appeared plantlets regenerated from the calli of Example 4 showing evidence of root formation, were excised from the calli and transferred to soil.
Plantlets were sprayed with luciferine, and the total number of luciferase-positive plantlets was scored. This allowed the calculation of the transformation frequency, as the number of plants expressing LUC gene to the number of transformed leaves, shown in FIG. 7.

[Cl-].[Na+] [NaCl]
decrease in plant biomass (Arabidopsis; 75 mM NaCl in MS medium): ~20% | decrease in plant biomass (Arabidopsis; 100 mM NaCl in MS medium): ~50% | RR (recombination rate) (Arabidopsis thaliana; 25 mM NaCl in medium): 12.29 ± 0.18 10^−8 | Fold Increase of RR (Arabidopsis thaliana; 25 mM NaCl vs plants grown in absence of NaCl): 1.64 | RR (recombination rate) (Arabidopsis thaliana; 75 mM NaCl in medium): 22.52 ± 0.34 10^−8 | Fold Increase of RR (Arabidopsis thaliana; 75 mM NaCl vs plants grown in absence of NaCl): 3 | RR (recombination rate) (Arabidopsis thaliana; 100 mM NaCl in medium): 29.57 ± 0.82 10^−8 | Fold Increase of RR (Arabidopsis thaliana; 100 mM NaCl vs plants grown in absence of NaCl): 3.93 | effect on homologous recombination frequency (Arabidopsis thaliana; MS medium + 25 mM NaCl, 21 days post-germination): significantly positive effects | increase in recombination frequency (Arabidopsis thaliana; exposure to 25-100 mM NaCl): 2-4 fold

[Cl-].[K+] [KCl, potassium chloride]
Calli regenerated and transplanted: died on soil (Nicotiana tabacum [1]; 47 mM KCl): 0 | Calli regenerated and transplanted: total (Nicotiana tabacum [1]; 47 mM KCl): 138 | Calli regenerated and transplanted: died on soil (Nicotiana tabacum [1]; 94 mM KCl): 3 | Calli regenerated and transplanted: total (Nicotiana tabacum [1]; 94 mM KCl): 181 | increase in number of calli regenerated vs control medium (Nicotiana tabacum [1]; media containing 47 and 94 mM KCl): 5.9 fold | Integration frequency, LUC positive plants/leaf transformed (Nicotiana tabacum [2]; 47 mM KCl): 5.3 | difference in number of stable transformants vs control media (Nicotiana tabacum [2]; 47 mM KCl): 5.9 fold | Calli regenerated and transplanted, LUC expression test: LUC negative (Nicotiana tabacum [2]; 47 mM KCl): 32 | Calli regenerated and transplanted, LUC expression test: LUC positive (Nicotiana tabacum [2]; 47 mM KCl): 106 | Integration frequency, LUC positive plants/leaf transformed (Nicotiana tabacum [2]; 94 mM KCl): 7.2 | difference in number of stable transformants vs control media (Nicotiana tabacum [2]; 94 mM KCl): 8.0 fold | Calli regenerated and transplanted, LUC expression test: LUC negative (Nicotiana tabacum [2]; 94 mM KCl): 41 | Calli regenerated and transplanted, LUC expression test: LUC positive (Nicotiana tabacum [2]; 94 mM KCl): 144 | effect on plant phenotype / plant biomass (Arabidopsis; 100 mM KCl in MS medium): no decrease in plant biomass was observed | increase in homologous recombination vs control MS medium (Arabidopsis thaliana; modified medium with 18.8 mM KCl): 9.3 fold | increase in homologous recombination vs control MS medium (Arabidopsis thaliana; modified medium with 47 mM KCl): 15.4 fold | increase in homologous recombination vs control MS medium (Arabidopsis thaliana; modified medium with 94 mM KCl): 19.2 fold

[Cl-].[Cl-].[Mg+2] [MgCl2]
effect on homologous recombination frequency (Arabidopsis thaliana; MS medium + 12.5 mM MgCl2, 21 days post-germination): significantly positive effects

Reference: patent US20100248372A1, “Composition and Method for Modulating Plant Transformation” (priority 2009, published 2010)
